Source: PMC12090182, “Repurposing of the RIPK1-Selective Benzo[1,4]oxazepin-4-one Scaffold for the Development of a Type III LIMK1/2 Inhibitor” (ACS Chemical Biology, 2025)

Experiments:
Format in all cases: binding
RET(M918T) = RET(M918T) (Homo sapiens, UniProt P07949, M918T); assay: biochemical; conditions: 1000 nM, read-out: Percent Control
BRPF1A = BRPF1A (Homo sapiens, UniProt P55201); assay: DSF selectivity screening; conditions: 10 μM compound
[1] = biological target: ABL1(Q252H)-nonphosphorylated (Homo sapiens, UniProt P00519, Q252H); assay: biochemical; conditions: read-out: Percent Control
FLT3(R834Q) = FLT3(R834Q) (Homo sapiens, UniProt P36888, R834Q); assay: biochemical; conditions: 1000 nM, read-out: Percent Control
FLT3(ITD,F691L) = conditions: compound concentration 100 nM; Entrez FLT3
PIK3CA(H1047L) = PIK3CA(H1047L) (Homo sapiens, UniProt P42336, H1047L); assay: biochemical; conditions: compound concentration 100 nM; Entrez PIK3CA; read-out: Percent Control
[2] = biological target: T1, ABL1(F317L)-phosphorylated (Homo sapiens, UniProt P00519, F317L); assay: biochemical; conditions: read-out: Percent Control
RET(V804L) = RET(V804L) (Homo sapiens, UniProt P07949, V804L); assay: biochemical; conditions: compound concentration 100 nM; Entrez RET; read-out: Percent Control
EGFR(T790M) = EGFR(T790M) (Homo sapiens, UniProt P00533, T790M); assay: biochemical; conditions: compound concentration 100 nM; Entrez EGFR; read-out: Percent Control
MET(M1250T) = MET(M1250T) (Homo sapiens, UniProt P08581, M1250T); assay: biochemical; conditions: 1000 nM, read-out: Percent Control
FLT3(D835Y) = FLT3(D835Y) (Homo sapiens, UniProt P36888, D835Y); assay: biochemical; conditions: 1000 nM, read-out: Percent Control
[3] = biological target: ABL1(T315I)-nonphosphorylated (Homo sapiens, UniProt P00519, T315I); assay: biochemical; conditions: read-out: Percent Control
EGFR(L861Q) = EGFR(L861Q) (Homo sapiens, UniProt P00533, L861Q); assay: biochemical; conditions: 1000 nM, read-out: Percent Control
STK39 = STK39 (Homo sapiens, UniProt Q9UEW8); assay: scanMAX KINOMEscan (Eurofins); conditions: 1000 nM, read-out: Percent Control
Excerpt: (§1) Supplement cb5c00097_si_002.xlsx, sheet "Table S6 (Eurofins Selectivity)" | column: Percent Control

JNK1 = JNK1 (Homo sapiens, UniProt P45983); assay: scanMAX KINOMEscan (Eurofins); conditions: compound concentration 100 nM; Entrez MAPK8; read-out: Percent Control
Sequence of JNK1 (P45983 whole entry): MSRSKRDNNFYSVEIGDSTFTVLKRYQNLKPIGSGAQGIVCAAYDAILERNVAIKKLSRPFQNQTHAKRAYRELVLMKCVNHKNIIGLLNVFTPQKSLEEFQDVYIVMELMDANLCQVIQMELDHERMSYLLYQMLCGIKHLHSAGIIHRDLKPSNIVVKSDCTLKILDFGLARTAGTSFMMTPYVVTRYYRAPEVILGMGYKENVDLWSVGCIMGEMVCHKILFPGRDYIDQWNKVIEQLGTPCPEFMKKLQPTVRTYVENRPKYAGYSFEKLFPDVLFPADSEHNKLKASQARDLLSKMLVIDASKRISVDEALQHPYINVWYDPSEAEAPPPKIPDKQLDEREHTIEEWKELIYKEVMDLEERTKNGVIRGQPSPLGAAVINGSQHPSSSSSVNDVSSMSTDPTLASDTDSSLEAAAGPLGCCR
Excerpt: as §1

SRMS = SRMS (Homo sapiens, UniProt Q9H3Y6); assay: scanMAX KINOMEscan (Eurofins); conditions: compound concentration 100 nM; Entrez SRMS; read-out: Percent Control
Excerpt: as §1

DYRK2 = DYRK2 (Homo sapiens, UniProt Q92630); assay: scanMAX KINOMEscan (Eurofins); conditions: read-out: Percent Control
Sequence of DYRK2 (Q92630 whole entry): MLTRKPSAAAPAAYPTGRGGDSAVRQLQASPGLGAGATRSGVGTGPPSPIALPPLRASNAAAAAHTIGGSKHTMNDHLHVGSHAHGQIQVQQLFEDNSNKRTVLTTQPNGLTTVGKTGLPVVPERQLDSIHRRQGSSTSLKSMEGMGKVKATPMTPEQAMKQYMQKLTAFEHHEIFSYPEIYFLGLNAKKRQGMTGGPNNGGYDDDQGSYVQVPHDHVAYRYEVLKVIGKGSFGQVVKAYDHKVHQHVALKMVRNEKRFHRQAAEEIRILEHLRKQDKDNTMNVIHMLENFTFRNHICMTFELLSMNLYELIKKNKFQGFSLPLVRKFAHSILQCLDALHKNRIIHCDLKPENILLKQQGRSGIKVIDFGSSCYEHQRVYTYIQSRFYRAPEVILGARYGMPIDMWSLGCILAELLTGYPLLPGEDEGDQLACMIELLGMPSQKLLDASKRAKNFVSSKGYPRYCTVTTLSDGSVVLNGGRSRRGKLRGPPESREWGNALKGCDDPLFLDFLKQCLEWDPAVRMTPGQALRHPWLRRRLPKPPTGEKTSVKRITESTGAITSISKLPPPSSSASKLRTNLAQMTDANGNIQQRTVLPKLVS
Excerpt: as §1

PLK4 = PLK4 (Homo sapiens, UniProt O00444); assay: scanMAX KINOMEscan (Eurofins); conditions: 1000 nM, read-out: Percent Control
Sequence of PLK4 (O00444 whole entry): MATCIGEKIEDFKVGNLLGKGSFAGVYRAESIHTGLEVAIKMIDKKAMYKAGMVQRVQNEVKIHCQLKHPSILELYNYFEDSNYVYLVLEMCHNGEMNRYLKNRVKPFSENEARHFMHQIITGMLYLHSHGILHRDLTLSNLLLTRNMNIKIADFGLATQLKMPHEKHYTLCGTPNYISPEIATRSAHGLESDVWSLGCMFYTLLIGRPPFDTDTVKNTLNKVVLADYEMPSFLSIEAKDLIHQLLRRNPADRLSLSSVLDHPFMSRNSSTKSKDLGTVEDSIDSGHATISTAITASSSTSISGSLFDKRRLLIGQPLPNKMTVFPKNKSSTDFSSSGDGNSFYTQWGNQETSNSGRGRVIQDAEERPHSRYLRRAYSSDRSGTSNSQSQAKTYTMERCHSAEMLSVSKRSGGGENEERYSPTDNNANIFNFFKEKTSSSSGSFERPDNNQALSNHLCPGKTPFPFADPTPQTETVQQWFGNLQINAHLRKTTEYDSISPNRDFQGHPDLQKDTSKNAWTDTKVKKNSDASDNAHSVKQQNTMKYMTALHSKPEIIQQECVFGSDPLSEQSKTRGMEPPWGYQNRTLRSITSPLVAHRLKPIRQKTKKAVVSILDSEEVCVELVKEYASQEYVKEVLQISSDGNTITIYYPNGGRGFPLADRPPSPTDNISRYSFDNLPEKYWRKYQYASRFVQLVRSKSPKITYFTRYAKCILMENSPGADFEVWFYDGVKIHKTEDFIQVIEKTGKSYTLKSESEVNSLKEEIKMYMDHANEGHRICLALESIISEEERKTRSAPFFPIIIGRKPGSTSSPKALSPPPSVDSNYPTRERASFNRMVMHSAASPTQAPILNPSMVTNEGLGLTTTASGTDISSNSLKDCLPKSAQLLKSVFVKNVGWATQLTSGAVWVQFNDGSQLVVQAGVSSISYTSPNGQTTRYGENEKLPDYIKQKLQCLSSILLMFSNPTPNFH
Excerpt: as §1

PIK3CD = PIK3CD (Homo sapiens, UniProt O00329); assay: scanMAX KINOMEscan (Eurofins); conditions: 1000 nM, read-out: Percent Control
Excerpt: as §1

SRC = SRC (Homo sapiens, UniProt P12931); assay: scanMAX KINOMEscan (Eurofins); conditions: compound concentration 100 nM; Entrez SRC; read-out: Percent Control
Sequence of SRC (P12931 whole entry): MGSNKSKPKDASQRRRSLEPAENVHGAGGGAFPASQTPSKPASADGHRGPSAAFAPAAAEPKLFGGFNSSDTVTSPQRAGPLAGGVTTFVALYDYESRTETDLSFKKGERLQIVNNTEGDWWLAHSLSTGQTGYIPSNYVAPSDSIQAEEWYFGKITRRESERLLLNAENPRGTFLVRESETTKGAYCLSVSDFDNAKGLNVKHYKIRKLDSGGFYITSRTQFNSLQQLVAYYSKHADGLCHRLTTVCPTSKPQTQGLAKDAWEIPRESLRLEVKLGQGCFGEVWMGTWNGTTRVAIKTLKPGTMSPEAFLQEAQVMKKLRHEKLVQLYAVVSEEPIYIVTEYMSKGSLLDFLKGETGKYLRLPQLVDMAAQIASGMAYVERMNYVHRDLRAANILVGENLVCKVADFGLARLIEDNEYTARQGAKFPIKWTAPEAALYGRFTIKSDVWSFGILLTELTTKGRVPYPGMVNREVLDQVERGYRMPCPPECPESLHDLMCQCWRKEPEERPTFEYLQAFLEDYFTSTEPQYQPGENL
Excerpt: as §1

PFTAIRE2 = PFTAIRE2 (Homo sapiens, UniProt Q96Q40); assay: scanMAX KINOMEscan (Eurofins); conditions: 1000 nM, read-out: Percent Control
Sequence of PFTAIRE2 (Q96Q40 whole entry): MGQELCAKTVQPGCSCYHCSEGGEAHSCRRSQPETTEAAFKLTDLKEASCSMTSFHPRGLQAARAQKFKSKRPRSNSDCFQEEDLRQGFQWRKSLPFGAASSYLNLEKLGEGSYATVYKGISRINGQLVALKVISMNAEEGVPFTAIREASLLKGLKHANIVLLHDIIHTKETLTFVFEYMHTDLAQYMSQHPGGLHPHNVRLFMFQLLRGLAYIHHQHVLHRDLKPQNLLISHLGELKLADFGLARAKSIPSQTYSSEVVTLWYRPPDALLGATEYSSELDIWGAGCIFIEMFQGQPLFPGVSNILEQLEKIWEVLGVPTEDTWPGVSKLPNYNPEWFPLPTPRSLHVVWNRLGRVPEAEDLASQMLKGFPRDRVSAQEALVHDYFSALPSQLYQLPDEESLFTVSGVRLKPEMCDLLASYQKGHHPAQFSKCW
Excerpt: as §1

RAF1 = RAF1 (Homo sapiens, UniProt P04049); assay: scanMAX KINOMEscan (Eurofins); conditions: compound concentration 100 nM; Entrez RAF1; read-out: Percent Control
Excerpt: as §1

VRK2 = VRK2 (Homo sapiens, UniProt Q86Y07); assay: scanMAX KINOMEscan (Eurofins); conditions: compound concentration 100 nM; Entrez VRK2; read-out: Percent Control
Sequence of VRK2 (Q86Y07 whole entry): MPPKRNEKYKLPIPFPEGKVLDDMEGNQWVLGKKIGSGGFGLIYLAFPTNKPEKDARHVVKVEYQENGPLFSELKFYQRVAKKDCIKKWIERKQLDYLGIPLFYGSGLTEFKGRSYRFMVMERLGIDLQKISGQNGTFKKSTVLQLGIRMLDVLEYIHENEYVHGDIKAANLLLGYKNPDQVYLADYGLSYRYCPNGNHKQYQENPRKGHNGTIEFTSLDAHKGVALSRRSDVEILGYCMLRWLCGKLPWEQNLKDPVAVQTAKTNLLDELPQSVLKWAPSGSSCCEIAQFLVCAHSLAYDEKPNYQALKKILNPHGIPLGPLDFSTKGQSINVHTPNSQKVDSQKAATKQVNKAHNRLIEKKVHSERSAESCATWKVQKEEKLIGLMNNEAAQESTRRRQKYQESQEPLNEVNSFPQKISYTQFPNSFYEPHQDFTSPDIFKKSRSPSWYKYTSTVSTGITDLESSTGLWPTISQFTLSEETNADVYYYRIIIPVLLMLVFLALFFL
Excerpt: as §1

TRKC = TRKC (Homo sapiens, UniProt Q16288); assay: scanMAX KINOMEscan (Eurofins); conditions: 1000 nM, read-out: Percent Control
Excerpt: as §1

NEK1 = NEK1 (Homo sapiens, UniProt Q96PY6); assay: scanMAX KINOMEscan (Eurofins); conditions: compound concentration 100 nM; Entrez NEK1; read-out: Percent Control
Excerpt: as §1

ERBB2 = ERBB2 (Homo sapiens, UniProt P04626); assay: scanMAX KINOMEscan (Eurofins); conditions: read-out: Percent Control
Sequence of ERBB2 (P04626 23-1255): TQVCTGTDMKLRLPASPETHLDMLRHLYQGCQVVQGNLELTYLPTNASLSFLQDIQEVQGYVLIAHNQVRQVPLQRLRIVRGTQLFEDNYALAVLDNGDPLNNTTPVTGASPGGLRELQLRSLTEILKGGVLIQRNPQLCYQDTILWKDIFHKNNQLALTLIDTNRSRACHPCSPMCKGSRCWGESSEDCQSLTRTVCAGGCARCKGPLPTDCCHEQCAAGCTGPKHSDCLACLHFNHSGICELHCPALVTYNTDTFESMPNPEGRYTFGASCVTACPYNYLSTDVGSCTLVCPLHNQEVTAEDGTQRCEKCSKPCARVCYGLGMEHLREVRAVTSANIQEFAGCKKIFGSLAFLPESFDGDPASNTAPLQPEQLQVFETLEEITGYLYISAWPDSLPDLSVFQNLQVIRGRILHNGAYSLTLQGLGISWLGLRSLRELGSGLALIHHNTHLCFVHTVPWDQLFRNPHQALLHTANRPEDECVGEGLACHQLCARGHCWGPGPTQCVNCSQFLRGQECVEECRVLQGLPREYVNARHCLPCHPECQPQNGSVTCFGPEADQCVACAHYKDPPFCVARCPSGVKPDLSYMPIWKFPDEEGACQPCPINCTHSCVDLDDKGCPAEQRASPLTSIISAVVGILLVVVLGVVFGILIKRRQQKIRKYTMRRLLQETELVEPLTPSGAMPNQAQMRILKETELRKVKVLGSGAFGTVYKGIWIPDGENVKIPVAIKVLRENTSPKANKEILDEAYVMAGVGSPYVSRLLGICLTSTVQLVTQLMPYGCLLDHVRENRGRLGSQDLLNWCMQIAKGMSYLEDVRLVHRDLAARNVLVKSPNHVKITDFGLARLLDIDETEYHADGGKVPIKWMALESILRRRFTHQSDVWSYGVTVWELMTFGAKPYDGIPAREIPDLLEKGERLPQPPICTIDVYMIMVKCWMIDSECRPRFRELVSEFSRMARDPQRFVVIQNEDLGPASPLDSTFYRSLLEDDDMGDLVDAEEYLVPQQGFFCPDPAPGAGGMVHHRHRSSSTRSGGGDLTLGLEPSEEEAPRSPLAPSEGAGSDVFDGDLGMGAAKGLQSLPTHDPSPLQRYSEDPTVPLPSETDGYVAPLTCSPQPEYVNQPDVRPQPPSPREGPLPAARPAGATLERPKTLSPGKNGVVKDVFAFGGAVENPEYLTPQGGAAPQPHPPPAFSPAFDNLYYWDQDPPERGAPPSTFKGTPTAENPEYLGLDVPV
Excerpt: as §1

ULK1 = ULK1 (Homo sapiens, UniProt O75385); assay: scanMAX KINOMEscan (Eurofins); conditions: compound concentration 100 nM; Entrez ULK1; read-out: Percent Control
Excerpt: as §1

SYK = SYK (Homo sapiens, UniProt P43405); assay: scanMAX KINOMEscan (Eurofins); conditions: 1000 nM, read-out: Percent Control
Excerpt: as §1

BRD4 = BRD4 (Homo sapiens, UniProt O60885); assay: DSF selectivity screening; conditions: 10 μM compound
[4] = biological target: T1, ABL1(F317L)-phosphorylated; assay: biochemical; conditions: compound concentration 100 nM; Entrez ABL1; read-out: Percent Control
EGFR(E746-A750del) = EGFR(E746-A750del) (Homo sapiens, UniProt P00533, DEL746-750); assay: biochemical; conditions: read-out: Percent Control
Sequence of EGFR(E746-A750del) (P00533 other isoform, or with tags, fused parts or gaps DEL746-750): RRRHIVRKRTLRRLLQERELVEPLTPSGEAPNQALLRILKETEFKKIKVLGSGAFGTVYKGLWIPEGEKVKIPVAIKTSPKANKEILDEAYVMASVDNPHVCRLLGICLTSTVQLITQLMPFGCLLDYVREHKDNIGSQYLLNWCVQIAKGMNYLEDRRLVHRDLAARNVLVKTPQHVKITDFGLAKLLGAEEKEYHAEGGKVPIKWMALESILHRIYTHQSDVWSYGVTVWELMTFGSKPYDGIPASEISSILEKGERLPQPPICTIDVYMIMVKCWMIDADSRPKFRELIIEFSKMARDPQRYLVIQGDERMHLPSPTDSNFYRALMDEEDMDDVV

EGFR(L858R) = EGFR(L858R) (Homo sapiens, UniProt P00533, L858R); assay: biochemical; conditions: 1000 nM, read-out: Percent Control
[5] = biological target: EGFR(L747-E749del, A750P) (Homo sapiens, UniProt P00533, A750P/DEL747-749); assay: biochemical; conditions: read-out: Percent Control

With `CN1C(=O)[C@@H](N2CCc3c(nn(Cc4ccccc4)c3C(N)=O)C2=O)COc2cc(Cl)ccc21` [Compound 10, (S)-2-benzyl-6-(8-chloro-5-methyl-4-oxo-2,3,4,5-tetrahydrobenzo[b][1,4]oxazepin-3-yl)-7-oxo-4,5,6,7-tetrahydro-2H-pyrazolo[3,4-c]pyridine-3-carboxamide] the remaining activity at 1 µM (RET(M918T)) was 96%, the ΔTm at 10 µM (BRPF1A) was -0.8 °C and the remaining activity at 1 µM [1] was 79%. For the same compound, the remaining activity at 1 µM (FLT3(R834Q)) was 92%, the “Percent Control” value (FLT3(ITD,F691L)) was 100 and the remaining activity at 0.1 µM (PIK3CA(H1047L)) was 75%. The remaining activity at 1 µM [2] was 100%, the remaining activity at 0.1 µM (RET(V804L)) was 84% and the remaining activity at 0.1 µM (EGFR(T790M)) was 100%. For the same compound, the remaining activity at 1 µM (MET(M1250T)) was 83%, the remaining activity at 1 µM (FLT3(D835Y)) was 94% and the remaining activity at 1 µM [3] was 73%. The remaining activity at 1 µM (EGFR(L861Q)) was 88%, the remaining binding at 1 µM (STK39) was 84% and the remaining binding at 0.1 µM (JNK1) was 79%. It also gave a remaining binding at 0.1 µM (SRMS) of 90%, a remaining binding at 1 µM (DYRK2; 1000 nM) of 100% and a remaining binding at 0.1 µM (DYRK2; compound concentration 100 nM, Entrez DYRK2) of 100%. For the same compound, the remaining binding at 1 µM (PLK4) was 82%, the remaining binding at 1 µM (PIK3CD) was 83% and the remaining binding at 0.1 µM (SRC) was 85%. It also gave a remaining binding at 1 µM (PFTAIRE2) of 90%, a remaining binding at 0.1 µM (RAF1) of 100% and a remaining binding at 0.1 µM (VRK2) of 77%. The remaining binding at 1 µM (TRKC) was 64%, the remaining binding at 0.1 µM (NEK1) was 76% and the remaining binding at 1 µM (ERBB2; 1000 nM) was 100%. For the same compound, the remaining binding at 0.1 µM (ERBB2; compound concentration 100 nM, Entrez ERBB2) was 100%, the remaining binding at 0.1 µM (ULK1) was 100% and the remaining binding at 1 µM (SYK) was 95%. It also gave a ΔTm at 10 µM (BRD4) of -1.4 °C, a remaining activity at 0.1 µM [4] of 100% and a remaining activity at 1 µM (EGFR(E746-A750del)) of 86%. It also gave a remaining activity at 1 µM (EGFR(L858R)) of 100% and a remaining activity at 1 µM [5] of 100%.
